# Data taken from paper PMC12561453, “Synthesis and Structure–Activity Relationship Study of 2-(amino)quinazolin-4(3H)-one Derivatives as Potential Inhibitors of Methicillin-Resistant Staphylococcus aureus (MRSA)” (Antibiotics, 2025).
# What was measured:
# [1] = Microsomal stability, human; assay type: in vitro ADME; settings: human microsomes
# Procedure: (§1) Table S2. Result of microsomal stability, plasma protein binding rate, and CYP inhibition of 6l and 6y
# (§2) Compound MSa PPBrat human rat human 1A2 2C9 2C19 2D6 3A4
# (§3) a % of remaining after 30 min. b plasma protein binding rate (%) at 5 μM concentrations. c % of CYP
# (§4) inhibition in human liver microsomes at 10 μM concentrations. […]
# [2] = Plasma protein binding, human; assay type: in vitro ADME; settings: read-out: PPB human, plasma protein binding rate (converted)
# Procedure: as §1, §2, §3, §4
# [3] = Microsomal stability, rat; assay type: in vitro ADME; settings: rat microsomes
# Procedure: as §1, §2, §3, §4
# [4] = Plasma protein binding, rat; assay type: in vitro ADME; settings: read-out: PPB rat, plasma protein binding rate (converted)
# Procedure: as §1, §2, §3, §4
# in vitro = assay type: cell-based; settings: Chinese hamster
# Procedure: (§5) Table S1. Results of hERG binding assay and cytotoxicity of 6l and 6y
# (§6) Compound hERGa CytotoxicityVERO HFL-1 L929 NIH 3T3 CHO-K1
# (§7) a % inhibition at 10 μM concentrations. b IC50 values in various mammalian cell lines. […]
# [5] = Cytotoxicity in VERO cells; assay type: cell-based; settings: African green monkey, VERO cells (kidney cell line)
# Procedure: as §5, §6, §7
# [6] = tested on: S. aureus USA300 JE2 expressing GFP in H460 cells; assay: microbe, parasite or virus in culture; assay type: cell-based, Staphylococcus aureus; settings: for MIC50: Staphylococcus aureus, USA300, 24 h, read-out: H460 Assay MIC50 (MIC50 ex vivo)
# Excerpt: Staphylococcus aureus, including MRSA, can invade host cells and replicate intracellularly, which complicates treatment with current therapies. To evaluate the intracellular antibacterial activities of the selected compounds, the fifteen compounds tested for cytotoxicity were further assessed using a cell infection model based on H460 human lung epithelial cells, which mimic MRSA-mediated pneumonia. H460 cells were infected with the USA300 JE2 expressing green fluorescent protein (GFP) and subsequently treated with the compounds in a dose–response manner, along with three reference antibiotics: vancomycin, linezolid, and erythromycin. After 24 h of incubation, bacterial loads were quantified by measuring GFP fluorescence in each well. MIC50 values determined in the H460 infection model (MIC50 ex vivo) were generally higher than those obtained from the in vitro tests, likely due to either limited compound penetration into host cells or reduced antibacterial effect of the compounds against intracellular bacteria (Figure 3, Table 2). […] These findings underscore the potential of compound 6y as a promising lead for further development as a novel antistaphylococcal agent.
# To see the ex vivo antimicrobial activity of the compound, the human lung carcinoma cell line H460 (ATCC #HTB-177) was used. The H460 cells were cultured in RPMI 1640 medium with 10% fetal bovine serum (FBS) and in a 96-well microplate at 37 °C and 5% CO2. Cell lines were cultured for 2 days, until they reached full confluence in the well. S. aureus (USA300-containing and pCM29-encoding GFP) was cultured in CAMHB with 10 µg/mL of chloramphenicol, and bacterial cells were harvested. After washing the bacterial cells with phosphate-buffered saline (PBS) and suspending them in RPMI, infected H460 cells with S. aureus (1 × 10^7 CFU) and incubated them for 2.5 h. Samples were washed three times with PBS. Then, cells were treated with gentamicin (50 µg/mL of gentamicin in RPMI) and incubated for 1 h. Samples were washed with PBS, RPMI-containing diluted compounds were added, and then they were incubated at 37 °C in 5% CO2 for 24 h. To detect the Green fluorescent protein (GFP) signal, an Ensight multimode plate reader and Opera Phenix Plus (Revvity, Waltham, MA, USA) were used.
# Ex vivo infection model images were generated using the Opera Phenix Plus high-content imaging system. Images were obtained by a confocal microscope with a 20× water objective lens. To detect the bacteria fluorescence signal (GFP), the Alexa 488 channel (488 nm laser/500–550 filter, Thermo Fisher Scientific, Waltham, MA, USA) was used, and the brightfield channel was used for H460 cell images.
# Figure 3 Antibacterial activities of 2-(amino)quinazolin-4(3H)-one derivatives in the H460 infection model. H460 cells were infected with S. aureus USA300 JE strain expressing GFP, followed by treatment with serial dilutions of 2-(amino)quinazolin-4(3H)-one derivatives. After incubation at 37 °C for 24 h with 5% CO2, fluorescence signals of the bacteria were detected at 488 nm/510 nm using a multilabel plate reader.
# S. aureus ATCC25923 = assay: Broth microdilution dose-response, S. aureus ATCC25923; assay type: cell-based, Staphylococcus aureus; settings: Staphylococcus aureus, ATCC25923, methicillin-sensitive strain; OD600 after 18–24 h; read-out: ATCC25923 MIC50
# Excerpt: The antistaphylococcal activities (MIC50) of the synthesized compounds were examined via a previously described broth microdilution method against two S. aureus strains: ATCC25923, a methicillin-sensitive reference strain, and JE2, a methicillin-resistant strain of the USA300 lineage (Figure 2, Table 1).
# Staphylococcus aureus USA300, a methicillin-resistant strain, was obtained from the Nebraska Transposon Mutant Library. Staphylococcus aureus ATCC25923, a pan-drug-susceptible strain, was purchased from the American Type Culture Collection (ATCC) (Manassas, VA, USA). S. aureus strains were grown in Cation-Adjusted Mueller–Hinton broth (CAMHB) (Difco) at 37 °C. Bacterial strain stocks were stored in vials with 25% glycerol at −80 °C. For each experiment, overnight cultures were prepared by inoculating a frozen bacterial strain stock in 10 mL of CAMHB medium and incubating at 37 °C in a shaking incubator (180 rpm). For the preliminary screen and dose–response experiments, 100 µL of overnight culture was inoculated into 10 mL of fresh CAMHB and incubated for 3 h at 37 °C and 180 rpm.
# Antibiotic susceptibility assay was tested according to modified Clinical and Laboratory Standards Institute (CLSI) laboratory guidelines for broth microdilution assays. S. aureus was cultured in CAMHB, and bacterial cells were prepared with an OD600 of 0.005. DRC plates were prepared by adding 40 µL of bacterial suspension to each well, where 10 µL of each compound had been dispensed for […] of two-fold serial dilutions starting at […]. After incubation of the plates at 37 °C for 18–24 h with 5% CO2, the growth of S. aureus was detected by measuring the OD600nm using an Ensight (Revvity) spectrometer (Revvity, Waltham, MA, USA).
# Figure 2 In vitro antibacterial activities of 2-(amino)quinazolin-4(3H)-one derivatives. S. aureus ATCC25923 (blue) and USA300 JE (orange) strains were incubated with serial dilutions of 2-(amino)quinazolin-4(3H)-one derivatives (0.19–100 µM) for 18–24 h. The dose–responses were observed by measuring OD600nm. The plots were drawn from each group of strains with nonlinear curve fits.
# CYP2C9 = biological target: T1, CYP2C9 (Homo sapiens, UniProt P11712); assay: CYP inhibition in human liver microsomes, 2C9; assay type: in vitro ADME
# T1 construct: from tissue; host or cells: human liver microsomes
# Procedure: as §1, §2, §3, §4
# hERG = hERG (Homo sapiens, UniProt Q12809); assay: hERG binding assay
# Procedure: as §5, §6, §7
# Chain of hERG (Q12809 whole entry): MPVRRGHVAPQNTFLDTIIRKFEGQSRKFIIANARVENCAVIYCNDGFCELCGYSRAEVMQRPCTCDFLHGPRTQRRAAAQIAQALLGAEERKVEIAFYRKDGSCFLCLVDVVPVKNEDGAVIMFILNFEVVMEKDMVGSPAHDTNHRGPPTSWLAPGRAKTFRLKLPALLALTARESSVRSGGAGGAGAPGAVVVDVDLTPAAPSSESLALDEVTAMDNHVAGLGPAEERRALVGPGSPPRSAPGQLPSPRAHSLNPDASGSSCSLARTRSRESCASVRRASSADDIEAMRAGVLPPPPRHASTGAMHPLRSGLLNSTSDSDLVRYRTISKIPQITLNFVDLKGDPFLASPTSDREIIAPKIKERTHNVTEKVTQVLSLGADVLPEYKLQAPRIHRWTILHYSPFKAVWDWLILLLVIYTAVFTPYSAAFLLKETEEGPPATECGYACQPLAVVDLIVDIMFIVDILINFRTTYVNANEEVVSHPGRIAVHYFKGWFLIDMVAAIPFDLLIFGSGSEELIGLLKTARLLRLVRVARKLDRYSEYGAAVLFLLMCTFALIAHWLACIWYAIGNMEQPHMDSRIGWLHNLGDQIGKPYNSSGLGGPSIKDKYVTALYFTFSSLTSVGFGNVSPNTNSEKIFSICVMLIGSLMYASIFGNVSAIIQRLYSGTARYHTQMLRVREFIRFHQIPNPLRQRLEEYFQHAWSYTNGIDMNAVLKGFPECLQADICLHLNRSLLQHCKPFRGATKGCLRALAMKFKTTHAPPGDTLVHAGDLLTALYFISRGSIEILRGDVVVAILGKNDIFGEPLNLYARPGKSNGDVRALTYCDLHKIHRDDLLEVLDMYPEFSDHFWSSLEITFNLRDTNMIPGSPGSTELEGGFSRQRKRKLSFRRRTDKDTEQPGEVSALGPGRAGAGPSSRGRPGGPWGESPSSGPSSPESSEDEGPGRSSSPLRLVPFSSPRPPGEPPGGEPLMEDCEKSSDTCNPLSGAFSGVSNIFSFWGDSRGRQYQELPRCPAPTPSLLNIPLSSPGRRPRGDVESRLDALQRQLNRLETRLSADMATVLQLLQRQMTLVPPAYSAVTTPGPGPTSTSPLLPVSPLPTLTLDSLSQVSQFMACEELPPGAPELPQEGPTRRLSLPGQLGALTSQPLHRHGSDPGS
# T1 sequence (P11712 whole entry): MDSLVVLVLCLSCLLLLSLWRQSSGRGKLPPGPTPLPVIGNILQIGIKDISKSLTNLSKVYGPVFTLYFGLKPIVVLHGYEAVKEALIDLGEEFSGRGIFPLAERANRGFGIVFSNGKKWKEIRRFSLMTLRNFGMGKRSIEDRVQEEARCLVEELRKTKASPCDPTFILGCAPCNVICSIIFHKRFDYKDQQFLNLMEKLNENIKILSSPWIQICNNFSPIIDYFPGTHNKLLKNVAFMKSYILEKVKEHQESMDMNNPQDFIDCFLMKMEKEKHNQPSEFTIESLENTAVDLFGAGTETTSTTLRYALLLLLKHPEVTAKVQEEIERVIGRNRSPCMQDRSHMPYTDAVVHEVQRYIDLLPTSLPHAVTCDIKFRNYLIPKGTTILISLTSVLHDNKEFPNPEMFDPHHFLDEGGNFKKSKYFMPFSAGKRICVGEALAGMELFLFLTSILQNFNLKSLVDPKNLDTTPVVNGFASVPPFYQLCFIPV
SMILES,"MS human, % of remaining after 30 min [1]",fraction unbound at 5 μM [2],"MS rat, % of remaining after 30 min [3]",fraction unbound at 5 μM [4],IC50 (in vitro),IC50 [5],MIC50 [6],MIC50 (S. aureus ATCC25923),inhibition at 10 µM (CYP2C9),inhibition at 10 µM (hERG),"distortion of H460 cell morphology (in words) ([6]; 6.25 µM, brightfield images, 24 h)","bacterial load in infected H460 cells (in words) ([6]; 6.25 µM, confocal images, 24 h)","H460 Assay MIC50 (MIC50 ex vivo) ([6]; H460 cells infected with USA300 JE2-GFP, 24 h, GFP fluorescence)"
"O=c1[nH]c(Nc2cc(Cl)cc(Cl)c2)nc2cc(Cl)ccc12 [6l, 7-Chloro-2-((3,5-dichlorophenyl)amino)quinazolin-4(3H)-one]",99.3%,0.002,104.7%,0.001,11 µM,8.5 µM,12.1 µM,1 µM,18.2%,37.8%,–,–,–
"O=c1[nH]c(NCc2ccc(F)c(F)c2)nc2cc(Cl)ccc12 [6y, 7-Chloro-2-((3,4-difluorobenzyl)amino)quinazolin-4(3H)-one]",42.9%,0.002,53.8%,0.005,51.6 µM,50.5 µM,1.9 µM,0.36 µM,91%,11.4%,relatively minimal distortion of H460 cell morphology,markedly reducing the bacterial load,1.9 µM
